Marks after values point to notes of the source that are not given here.
How the values were obtained:
5% DSS murine colitis [1] = assay: DSS murine colitis, Experiment 2 (Method 2); format: in vivo, BDF1 male mice; conditions: 31 at 2 mg/ml, 47 at 4 mg/ml, 10 ml/kg oral gavage daily day 0-6; 5-ASA 100 mg/kg
Protocol: A total of 90 BDF1 (H. pylori-free, murine norovirus-free) male mice (Harlan Laboratories, UK) were used in the study. Animals were 8-10 weeks old on supply and used at 10-12 weeks of age. All mice were held in individually ventilated cages (IVCs) in an SPF (Specific Pathogen Free) barrier unit. The animals were identified by numbered cages and by ear punches.
DSS (MP Biomedicals 0216011090, lot# M2709) was prepared as a 5% (w/v) solution in the drinking water and made fresh daily on days 0 to 6 inclusive. DSS was administered from day 0 to day 7.
Test items were stored at −20° C. until the initiation of the study. Each test item was formulated as a homogenous suspension in 0.5% carboxymethyl cellulose (CMC, Sigma C4888) in sterile water (Sigma W3500, lot# RNBC1419), using an Ultraturax homogeniser, on study day −1. Compound 31 was formulated at 2 mg/ml and 47 was formulated at 4 mg/ml. After formulation the test item and the vehicle stocks anonymised with a letter code. All solutions were stored at 4° C. during the study, with 3.8 ml of each suspension being dispensed daily. Test items were administered by oral gavage, daily at 09.00 hrs, at 10 ml/kg, from study day 0 to study day 6.
5-ASA (5-Aminosalicylic acid, Sigma A3537, lot#051M1878V) was aliquoted into preweighed amounts between 71 and 84 mg. Like test item suspensions, these aliquots were anonymised by a letter code. Individual aliquots were formulated as a 10 mg/ml suspension in 0.5% CMC (Sigma C4888) in sterile water (Sigma W3500, lot# RNBC1419) on each day of dosing. 5-ASA was administered by oral gavage, daily at 09.00 hrs, at 10 ml/kg to give a dose of 100 mg/kg, from study day 0 to study day 6. 2.5 Clinical examinations
Any animal was culled if the weight loss was greater than 20%. Animal well-being was monitored daily. Once daily from day 0 until the end of the study, all mice were weighed and assessed for stool consistency, and the presence of overt blood in the stool or around the anus according to the criteria in 2.1
At necropsy, observation of stool in the large bowel was used to supplement in-life observation. […]

5% DSS murine colitis [2] = assay: Acute murine 5% DSS colitis model, Experiment 1; format: in vivo; conditions: for DAI on the day of autopsy versus vehicle controls: compound 6 3-30 mg/kg at each dose level; for colon pathology (histology scores) relative to vehicle: compound 6 at both 10 and 30 mg/Kg, prednisolone 5 mg/Kg; for colon IL1β level / colon IL6 level / colon TNFα level: day 7; for colon IL1β level: DSS-elevated 0.744±0.076 ng/mg; for colon IL6 level: DSS-elevated 1.057±0.1784 ng/mg; for colon TNFα level: DSS-elevated 1.478±0.378 ng/mg; for DAI at day 7: 10 mg/kg daily for 7 days, vehicle 9.3±0.51
Text: The study is widely used as a model for studying the pathogenesis of UC and also for screening new therapeutic interventions for the treatment of UC.
In these studies, an acute colitis model was used, with 5% DSS administered in the drinking water of BALB/c mice. This dosage regime induces severe acute colitis, by days 7-8 mice had overt rectal bleeding and marked weight loss; unless sacrificed beforehand, all mice would have died by days 10-12.
Specific Pathogen-Free BALB/c mice, 6-8 weeks of age, were obtained from a commercial supplier (Harlan UK). Mice were fed irradiated diet and housed in individually ventilated cages (Tecniplast UK) under positive pressure.
DSS (5%) was dissolved in drinking water. Compounds were administered orally at a dose of 10 mg/kg or 30 mg/kg on days 0-7, and mice were culled on day 8 or day 9, depending on the severity of the disease. The mice were checked each day for morbidity and the weight of individual mice was recorded. Induction of colitis was determined upon autopsy, length of colon and histology. Colons were recovered and stored at −20° C. for immunological analysis. All of the compounds and experimental groups are randomly alphabetically labelled. Throughout experiments all data recording was performed in a blind manner. The codes on boxes/groups were not broken until after the data was analysed i.e. boxes labelled A, B, C etc were identified as untreated, DSS-treated, or DSS+compound-treated.
To quantify the extent of colitis, a disease activity index (DAI) was determined based on weight loss, faecal blood and stool consistency. A score was given for each parameter, with the sum of the scores used as the DAI. For each treatment group n=8.
All compounds were prepared for oral gavage (0.1 mL per os (p.o.) per 10 g body weight) as a suspension in 0.5% carboxymethyl cellulose/2% Tween 80, at a dose of 3-30 mg/Kg.

[3] = Partition coefficient (log P), HPLC method; format: physicochemical; conditions: reverse phase C18 HPLC; for Acid Log10 POW: acidic pH; for Basic Log10 POW: alkaline pH; for Neutral Log10 POW: neutral pH
Text: The partition coefficient of compound 5 and related analogous compounds was investigated using the HPLC method (reverse phase C18 HPLC column) at neutral, acidic and alkaline pH.

[4] = tested on: chronic colitis in IL10-/- mice; assay: Chronic IL10-/- colitis model; format: in vivo, IL10-/- BALB/c strain mice; conditions: 300 mg/kg/week oral, MWF
Protocol: FIG. 15: Is a group showing weight loss in IL10^−−/−− mice treated with vehicle or compound 6. Mice were administered compound 6 (300 mg/kg/week) or vehicle orally on a Monday/Wednesday/Friday (MWF) dosing schedule. Mice were ˜4 weeks of age at start of experiment and were treated for 9 weeks. Mice were weighed weekly and data are presented as Mean±SEM from 9-12 mice per group. Mice were monitored for overt disease, rectal prolapse, and moribund animals were humanely killed;
Mice with a deletion in the IL10^−−/−− gene spontaneously develop chronic colitis, with the age of onset and the severity of the disease being dependent on background mouse strain and the conditions in which the animals are housed. The onset of colitis in IL10^−−/−− mice housed under the conditions used in this study was also strain dependent, with an earlier onset and greater severity, in terms of mortality, in BALB/c strain mice relative to C57BL/6 strain animals. In this experiment, animals received oral treatment on a MWF regime over 9 weeks. Initially, both groups of mice progressively gain weight (FIG. 15). […] By week 9 animals had marked weight loss, with one moribund animal humanely killed on day 60 in each group. As other mice were losing weight and developing clinical symptoms of disease, both groups were culled at week 9 (day 63) and analysed.

[5] = Solubility in water and buffers; format: physicochemical
Protocol: The sodium salt, potassium salt, calcium salt, α-methylbenzylamine salt and N-Methyl-(D)-Glucamine salt were synthesised. The sodium and calcium salt were unsuccessful. The three salts of compound 5, named potassium salt, α-methylbenzylamine salt and N-Methyl-(D)-Glucamine salt were used for solubility and partition coefficient (log P) studies.
The solubility of the four compounds were determined: […]

[6] = compound 6 10 and 30 mg/kg groups, Prednisolone 5 mg/kg
[7] = compound 6 30 mg/kg, Prednisolone 5 mg/kg

NCC(=O)O[C@@H]1c2ccccc2C[C@@]1(Cc1ccc(C(=O)O)cc1)C1=Cc2ccccc2C1 [Compound 31, 4-{[(1′S,2′S)-1′-(glycyloxy)-1′,3′-dihydro-1H,2′H-2,2′-biinden-2′-yl]methyl}benzoic acid]
DAI at day 7 in comparison with vehicle (5% DSS murine colitis [1]): reduced DAI comparable or equal to 5ASA

O=C(O)c1ccc(C[C@@]2(C3=Cc4ccccc4C3)Cc3ccccc3[C@H]2O)cc1 [Compound 6, 6-(Methylamino)hexane-1,2,3,4,5-pentanol 4-(((1S,2S)-1-hydroxy-2,3-dihydro-1H,1′H-2,2′-biinden-2-yl)methyl)benzoate]
inhibition of colon shortening (colon length) versus vehicle, day 7 (5% DSS murine colitis [2]; 3 mg/kg): did not have a significant effect
therapeutic efficacy in the DSS model (5% DSS murine colitis [2]; compound 6 30 mg/Kg versus prednisolone 5 mg/Kg): comparable, or better, efficacy relative to prednisolone
colon length compared with Prednisolone, day 7 (5% DSS murine colitis [2]; compound 6 30 mg/kg, P<0.05): significantly better than Prednisolone
DAI on the day of autopsy versus vehicle controls (5% DSS murine colitis [2]; Prednisolone 5 mg/kg): significantly (P<0.05-P<0.01) lower DAI than vehicle controls
inhibition of colon shortening (colon length) versus vehicle, day 7 (5% DSS murine colitis [2]; [6]): did have a significant effect
colon pathology (histology scores) relative to vehicle (5% DSS murine colitis [2]): dose-dependent and highly statistically significant reduction
colon IL1β level (5% DSS murine colitis [2]; [7]): significant (P<0.05, 30 mg/kg) and dose-dependant reduction
colon IL6 level (5% DSS murine colitis [2]; [7]): significant (P<0.05, 30 mg/kg) and dose-dependant reduction
colon TNFα level (5% DSS murine colitis [2]; [7]): significant (P<0.05, 30 mg/kg) and dose-dependant reduction
overt reactions in mice (5% DSS murine colitis [2]; oral daily for 7 days, 3, 10 and 30 mg/Kg): no overt reactions
Acid Log10 POW [3]: 2.6
Basic Log10 POW [3]: 4.3
Neutral Log10 POW [3]: 3.5
survival over the 9 weeks, Kaplan-Meier analysis versus vehicle [4]: no statistical difference in survival
weight gain ([4]; vehicle stopped gaining weight from week 5): maintained weight gain until week 8
Serum Amyloid A (SAA) levels relative to vehicle ([4]; week 9): significantly (P<0.05; Student's t-test) reduced
extent of colon pathology (histology score) relative to vehicle ([4]; week 9): significantly reduced

O=C(O)c1ccc(C[C@]2(C3=Cc4ccccc4C3)Cc3ccccc3[C@@H]2O)cc1 (single isomer, unassigned) [Compound 3]
DAI at day 6 versus vehicle (5% DSS murine colitis [2]; 30 mg/kg p.o.): no statistical (P>0.05) difference
activity in 5% DSS murine colitis model (5% DSS murine colitis [2]; 30 mg/kg p.o. daily for 7 days): minimal activity

O=C(O)c1ccc(C[C@@]2(C3=Cc4ccccc4C3)Cc3ccccc3[C@@H]2O)cc1 [Compound 4, 4-(((1R,2S)-1-hydroxy-2,3-dihydro-1H,1′H-2,2′-biinden-2-yl)methyl)benzoic acid]
activity in 5% DSS murine colitis model (5% DSS murine colitis [2]; 30 mg/kg p.o. daily for 7 days): almost devoid of activity
disease activity index (DAI) at day 7 (5% DSS murine colitis [2]; 30 mg/kg p.o. daily for 7 days, vehicle controls 9.0±0.53): without activity

O=C(O)c1ccc(C[C@@]2(C3=Cc4ccccc4C3)Cc3ccccc3[C@H]2O)cc1 (single isomer, unassigned) [Compound 2]
activity in 5% DSS murine colitis model (5% DSS murine colitis [2]; 30 mg/kg p.o. daily for 7 days): highly active

CNCC(O)C(O)C(O)C(O)CO.O=C(O)c1ccc(C[C@]2(C3=Cc4ccccc4C3)Cc3ccccc3[C@H]2O)cc1 [Compound 7, 6-(Methylamino)hexane-1,2,3,4,5-pentanol 4-(((1S,2R)-1-hydroxy-2,3-dihydro-1H,1′H-2,2′-biinden-2-yl)methyl)benzoate]
solubility, Milli-RO H20 ([5]; Milli-RO water, listed as Compound 5 N-Methyl-D-Glucamine salt): >60,000* μg/mL
solubility, pH 4.0 Buffer ([5]; pH 4.0 buffer): 0.14 μg/mL
solubility, pH 7.0 Buffer ([5]; pH 7.0 buffer, listed as Compound 5 N-Methyl-D-Glucamine salt): >60,000* μg/mL
solubility, pH 9.0 Buffer ([5]; pH 9.0 buffer, listed as Compound 5 N-Methyl-D-Glucamine salt): >60,000* μg/mL
DAI at day 7 (5% DSS murine colitis [2]): no significant (P>0.05) effect
Acid Log10 POW [3]: 3.8
Basic Log10 POW [3]: 3.5
Neutral Log10 POW [3]: 3.5

C[C@]12C=CC(=O)C=C1CC[C@@H]1[C@@H]2[C@@H](O)C[C@@]2(C)[C@H]1CC[C@]2(O)C(=O)CO [Prednisolone, reference compound]
DAI on the day of autopsy versus vehicle controls (5% DSS murine colitis [2]; Prednisolone 5 mg/kg): significantly (P<0.01; ANOVA; Dunnett Multiple Comparison Test) reduced DAI scores
inhibition of colon shortening (colon length) versus vehicle, day 7 (5% DSS murine colitis [2]; [6]): did have a significant effect
colon pathology (histology scores) relative to vehicle (5% DSS murine colitis [2]): no significant improvement
colon IL1β level (5% DSS murine colitis [2]; [7]): reduced (p<0.05)
colon IL6 level (5% DSS murine colitis [2]; [7]): reduced (p<0.05)
colon TNFα level (5% DSS murine colitis [2]; [7]): reduced (p<0.05)

O=C(O)c1ccc(C[C@]2(C3=Cc4ccccc4C3)Cc3ccccc3[C@H]2O)cc1 [Compound 5, 4-(((1S,2R)-1-hydroxy-2,3-dihydro-1H,1′H-2,2′-biinden-2-yl)methyl)benzoic acid]
DAI at day 7 (5% DSS murine colitis [2]): no significant (P>0.05) effect
activity in 5% DSS murine colitis model (5% DSS murine colitis [2]; 30 mg/kg p.o. daily for 7 days): highly active
Acid Log10 POW [3]: 3.9
Basic Log10 POW [3]: 3.7
Neutral Log10 POW [3]: 3.7

Source: US9260376B2, “Compounds for use in the treatment of immune related inflammatory disease” (VENANTIUS LIMITED, priority 2011, dated 2016)
